Data as given in ChEMBL document CHEMBL4004803, “Syntheses and antibacterial activity of soluble 9-bromo substituted indolizinoquinoline-5,12-dione derivatives” (Eur J Med Chem, 2017).
Values after ≈ are worked out from the molar mass of the structure shown.

Legend:
Type in all cases: functional
[1] = tested on: Staphylococcus aureus; experiment: Potency index, ratio of vancomycin MIC90 to test compound MIC90 for methicillin-resistant Staphylococcus aureus
[2] = tested on: Staphylococcus aureus; experiment: Antibacterial activity against methicillin-resistant Staphylococcus aureus 109244 clinical isolate after 20 to 24 hrs by two-fold microdilution method
[3] = tested on: Staphylococcus aureus; experiment: Antibacterial activity against methicillin-resistant Staphylococcus aureus 212014 clinical isolate after 20 to 24 hrs by two-fold microdilution method
[4] = tested on: Staphylococcus aureus; experiment: Antibacterial activity against methicillin-resistant Staphylococcus aureus 20534 clinical isolate after 20 to 24 hrs by two-fold microdilution method
[5] = tested on: Staphylococcus aureus; experiment: Potency index, ratio of vancomycin MIC50 to test compound MIC50 for methicillin-resistant Staphylococcus aureus
[6] = tested on: Staphylococcus aureus; experiment: Antibacterial activity against methicillin-resistant Staphylococcus aureus 1214023 clinical isolate after 20 to 24 hrs by two-fold microdilution method
[7] = tested on: Staphylococcus aureus; experiment: Antibacterial activity against methicillin-resistant Staphylococcus aureus 1212057-1 clinical isolate after 20 to 24 hrs by two-fold microdilution method
[8] = tested on: Staphylococcus aureus; experiment: Antibacterial activity against methicillin-resistant Staphylococcus aureus 1026211 clinical isolate after 20 to 24 hrs by two-fold microdilution method
[9] = tested on: Staphylococcus aureus; experiment: Antibacterial activity against methicillin-resistant Staphylococcus aureus 530231 clinical isolate after 20 to 24 hrs by two-fold microdilution method
[10] = tested on: Staphylococcus aureus; experiment: Antibacterial activity against methicillin-resistant Staphylococcus aureus 1111047-1 clinical isolate after 20 to 24 hrs by two-fold microdilution method
[11] = tested on: Staphylococcus aureus; experiment: Antibacterial activity against methicillin-resistant Staphylococcus aureus 216054 clinical isolate after 20 to 24 hrs by two-fold microdilution method
[12] = tested on: Staphylococcus aureus; experiment: Antibacterial activity against methicillin-resistant Staphylococcus aureus 316031 clinical isolate after 20 to 24 hrs by two-fold microdilution method
[13] = tested on: Staphylococcus aureus; experiment: Antibacterial activity against methicillin-resistant Staphylococcus aureus 1103006 clinical isolate after 20 to 24 hrs by two-fold microdilution method
[14] = tested on: Staphylococcus aureus; experiment: Antibacterial activity against methicillin-resistant Staphylococcus aureus 502025 clinical isolate after 20 to 24 hrs by two-fold microdilution method
[15] = tested on: Staphylococcus aureus; experiment: Antibacterial activity against methicillin-resistant Staphylococcus aureus 724244 clinical isolate after 20 to 24 hrs by two-fold microdilution method
[16] = tested on: Staphylococcus aureus; experiment: Antibacterial activity against methicillin-resistant Staphylococcus aureus 1215028 clinical isolate after 20 to 24 hrs by two-fold microdilution method
[17] = tested on: Staphylococcus aureus; experiment: Antibacterial activity against methicillin-resistant Staphylococcus aureus 1019240 clinical isolate after 20 to 24 hrs by two-fold microdilution method
[18] = tested on: Staphylococcus aureus; experiment: Antibacterial activity against methicillin-resistant Staphylococcus aureus 316038 clinical isolate after 20 to 24 hrs by two-fold microdilution method
[19] = tested on: Staphylococcus aureus; experiment: Potency index, ratio of vancomycin MIC to test compound MIC for […] Staphylococcus aureus ATCC 25923

Structure (SMILES) | Ratio [1] | MIC [2] [µg/mL] | MIC [3] [µg/mL] | MIC [4] [µg/mL] | Ratio [5] | MIC [6] [µg/mL] | MIC [7] [µg/mL] | MIC [8] [µg/mL] | MIC [9] [µg/mL] | MIC [10] [µg/mL] | MIC [11] [µg/mL] | MIC [12] [µg/mL] | MIC [13] [µg/mL] | MIC [14] [µg/mL] | MIC [15] [µg/mL] | MIC [16] [µg/mL] | MIC [17] [µg/mL] | MIC [18] [µg/mL] | Ratio [19]
O=C1c2cccnc2C(=O)c2c1c(C(=O)OCCCCCCN1CCCCC1)c1ccc(Br)cn21 | 16 | 0.031 (≈ 0.0576 µM) | ≤ 0.0078 | 0.125 (≈ 0.232 µM) | 16 | ≤ 0.0078 | 0.016 (≈ 0.0297 µM) | 0.063 (≈ 0.117 µM) | 0.125 (≈ 0.232 µM) | 0.25 (≈ 0.464 µM) | ≤ 0.0078 | 0.125 (≈ 0.232 µM) | > 16 | 0.063 (≈ 0.117 µM) | 0.031 (≈ 0.0576 µM) | 0.063 (≈ 0.117 µM) | 0.125 (≈ 0.232 µM) | 0.031 (≈ 0.0576 µM) | –
CN1CCN(CCCCCCOC(=O)c2c3c(n4cc(Br)ccc24)C(=O)c2ncccc2C3=O)CC1 | – | 0.125 (≈ 0.226 µM) | 0.25 (≈ 0.452 µM) | 0.125 (≈ 0.226 µM) | – | 0.063 (≈ 0.114 µM) | 0.031 (≈ 0.056 µM) | ≤ 0.0078 | 0.5 (≈ 0.903 µM) | 1 (≈ 1.81 µM) | 0.125 (≈ 0.226 µM) | 0.25 (≈ 0.452 µM) | > 16 | 0.25 (≈ 0.452 µM) | 0.031 (≈ 0.056 µM) | 0.063 (≈ 0.114 µM) | 0.25 (≈ 0.452 µM) | 0.063 (≈ 0.114 µM) | 256
CN(C)CCCCCOC(=O)c1c2c(n3cc(Br)ccc13)C(=O)c1ncccc1C2=O | – | 0.5 (≈ 1.03 µM) | 0.063 (≈ 0.13 µM) | 0.5 (≈ 1.03 µM) | – | ≤ 0.0078 | 0.125 (≈ 0.258 µM) | 0.063 (≈ 0.13 µM) | 0.25 (≈ 0.516 µM) | 0.5 (≈ 1.03 µM) | 0.25 (≈ 0.516 µM) | 0.5 (≈ 1.03 µM) | 16 (≈ 33 µM) | 0.5 (≈ 1.03 µM) | 0.125 (≈ 0.258 µM) | 0.125 (≈ 0.258 µM) | 0.5 (≈ 1.03 µM) | 0.25 (≈ 0.516 µM) | 256
O=C1c2cccnc2C(=O)c2c1c(C(=O)OCCCCN1CCOCC1)c1ccc(Br)cn21 | – | 0.25 (≈ 0.488 µM) | 0.125 (≈ 0.244 µM) | 1 (≈ 1.95 µM) | – | 0.031 (≈ 0.0605 µM) | 0.25 (≈ 0.488 µM) | 0.063 (≈ 0.123 µM) | 0.5 (≈ 0.976 µM) | 1 (≈ 1.95 µM) | 0.063 (≈ 0.123 µM) | 0.5 (≈ 0.976 µM) | > 16 | 0.5 (≈ 0.976 µM) | 0.125 (≈ 0.244 µM) | 0.5 (≈ 0.976 µM) | 1 (≈ 1.95 µM) | 0.25 (≈ 0.488 µM) | –
O=C1c2cccnc2C(=O)c2c1c(C(=O)OCCCCCN1CCOCC1)c1ccc(Br)cn21 | – | 0.031 (≈ 0.0589 µM) | 0.063 (≈ 0.12 µM) | 0.125 (≈ 0.237 µM) | – | 0.125 (≈ 0.237 µM) | ≤ 0.0078 | ≤ 0.0078 | 0.031 (≈ 0.0589 µM) | 0.063 (≈ 0.12 µM) | 0.063 (≈ 0.12 µM) | 0.031 (≈ 0.0589 µM) | 16 (≈ 30.4 µM) | 0.125 (≈ 0.237 µM) | ≤ 0.0078 | ≤ 0.0078 | 0.031 (≈ 0.0589 µM) | 0.031 (≈ 0.0589 µM) | –
O=C1c2cccnc2C(=O)c2c1c(C(=O)OCCCCCCN1CCOCC1)c1ccc(Br)cn21 | – | ≤ 0.0078 | ≤ 0.0078 | ≤ 0.0078 | – | ≤ 0.0078 | ≤ 0.0078 | ≤ 0.0078 | ≤ 0.0078 | ≤ 0.0078 | ≤ 0.0078 | ≤ 0.0078 | > 16 | ≤ 0.0078 | ≤ 0.0078 | ≤ 0.0078 | ≤ 0.0078 | ≤ 0.0078 | 256
